Results published in patent US5604226A, “Pyridazinone derivatives, processes for production thereof and use thereof” (Nihon Nohyaku Co., Ltd., priority 1993, dated 1997).

Legend:
[1] = test system: ADP-inducing platelet aggregation; test: Rabbit exo-vivo test, ADP-inducing platelet aggregation after oral administration (Experiment 2); format: in vivo, Japanese white rabbits
Procedure: Japanese white rabbits weighing 3.0-4.0 kg were fasted for 18 hours. A drug suspension in 2% gum arabic aqueous solution was orally given to the animal in a definite dose. Blood was collected 1 and 4 hours after. PRP was prepared in a manner similar to Experiment 1 and ADP-inducing platelet aggregation function was determined. An inhibition rate was calculated based on an aggregation rate of ADP prior to administration of the compound.

[2] = test system: thrombocytopenia in mice (collagen-induced, platelet count); test: Activity of preventing thrombocytopenia in mice, collagen i.v. (Experiment 3); format: in vivo, male ddY mice; conditions: Mus musculus, 3.0 mg/kg oral, 1 hour before collagen 0.5 mg/kg i.v., * p = 5%, ** p = 1%, *** p = 0.1%, read-out: Average Inhibition Rate (platelet count; normal mouse 100, control mouse 0)
Procedure: Activity of preventing thrombocytopenia in mice:
Collagen (Holm Co.) diluted with physiological saline was intravenously given through the vein to male ddY mice of 6 weeks old, weighing 28-31 g, which had been fasted for 4-5 hours, in a dose of 0.5 mg/kg. Five minutes after, blood was collected from the lower thigh vein under pentobarbital anesthesia through a plastic syringe treated with heparin containing 3.8% sodium citrate. The drug was orally given an hour before the collagen administration. The platelet count was measured with Sysmex E-4000. The inhibition activity is shown in terms of percentage of the platelet count when the platelet count of normal mouse was made 100 and the platelet count of control mouse was made 0.

[3] = test system: Platelet aggregation (ADP, rabbit platelet rich plasma); test: Platelet aggregation inhibition in rabbit PRP, ADP-induced, Born's turbidimetry (Experiment 1); format: cell-based; conditions: Oryctolagus cuniculus, 0.05 h, ADP 2 to 4 μM, 3 min incubation, read-out: Aggregation Inhibition Rate
Procedure: Blood was collected from the ear vein of rabbit, together with 1/10 volume sodium citrate. Centrifugation at 1,200 rpm for 10 minutes gave the supernatant which was made platelet rich plasma (PRP). The blood was further centrifuged at 3,000 rpm for 10 minutes to give platelet poor plasma (PPP). The platelet count of PRP was adjusted to 300,000/μl with PPP, which was provided for the test. Platelet aggregation was determined with aggregometer (HEMATRACERVI, Niko Bioscience Co.) based on Born's turbidimetry. That is, 200 μl of PRP was charged in a cell and 1 μl of a drug solution dissolved in dimethylsulfoxide was added thereto. After incubation for 3 minutes, ADP was added in a concentration of 2 to 4 μM to cause aggregation. Change in transmittance in the cell was then monitored. The results are shown in Table 2, in terms of aggregation inhibition rate which was determined by comparing a transmittance of control with that obtained at the maximum aggregation on an aggregation curve when the transmittance of PRP was made 0% and the transmittance of PPP was made 100%.

For `COc1ccc(CNc2c(OCC[S+]([O-])c3ccccc3)n[nH]c(=O)c2Br)cc1OC` (stereo not shown) [Compound 8, 4-bromo-5-(3,4-dimethoxyphenylmethylamino)-6-[2-(phenylsulfinyl)ethyloxy]-3(2H)-pyridazinone], the “Average Inhibition Rate” value ([1]; 3 mg/kg oral, 1 Hour) was 48%, the “Average Inhibition Rate” value ([1]; 3 mg/kg oral, 4 Hours) was 23% and the “Average Inhibition Rate” value ([1]; 30 mg/kg oral, 1 Hour) was 72%. For the same molecule, the “Average Inhibition Rate” value ([1]; 30 mg/kg oral, 4 Hours) was 70%, the inhibition in vivo at 3 mg/kg [2] was 45% and the inhibition at 1 µg/mL ([3]; 10^-6 g/ml) was 100%. It also gave an inhibition at 0.1 µg/mL ([3]; 10^-7 g/ml) of 82%.
